# Key:
# human M2 receptor [1] = biological target: T1, human M2 receptor (Homo sapiens, UniProt P08172); test: Functional M2-GIRK1/4 activation test: positive cooperativity (α factor), shift of acetylcholine dose-response curve; type: cell-based; details: Allosteric EC50 shift of acetylcholine 8-point dose-response curve; CHO-DUKX-M2-GIRK cells; α>1 = positive cooperativity
# T1 construct: expressed in transfected cells; host or cells: CHO-DUKX (CHO-DUKX-M2-GIRK)
# T1 sequence (P08172 1-466): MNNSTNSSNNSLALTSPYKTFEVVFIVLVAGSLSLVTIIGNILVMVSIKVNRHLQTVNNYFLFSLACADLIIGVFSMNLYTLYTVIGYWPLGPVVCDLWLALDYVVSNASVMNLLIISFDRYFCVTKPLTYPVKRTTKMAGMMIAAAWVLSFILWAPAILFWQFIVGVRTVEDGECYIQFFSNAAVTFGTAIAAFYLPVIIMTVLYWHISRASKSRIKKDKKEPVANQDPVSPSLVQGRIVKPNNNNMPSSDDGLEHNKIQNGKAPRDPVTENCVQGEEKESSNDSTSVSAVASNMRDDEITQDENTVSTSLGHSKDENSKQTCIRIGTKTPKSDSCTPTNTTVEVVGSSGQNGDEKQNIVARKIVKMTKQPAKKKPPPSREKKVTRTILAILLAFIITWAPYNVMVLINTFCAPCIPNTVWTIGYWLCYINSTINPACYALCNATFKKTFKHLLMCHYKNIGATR
# Outline: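 CHO-DUKX cells stably expressing human M2 and GIRK1/4, loaded with voltage-sensitive dye at room temperature; hyperpolarization followed by fluorescence. Each test-substance concentration, added first, combined with an 8-point acetylcholine dose-response; shift of the acetylcholine curve analysed by allosteric EC50 shift model to give cooperativity factor α.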
# human M2 receptor [2] = biological target: T1, human M2 receptor; test: Functional M2-GIRK1/4 activation test: allosteric potency (EC50) and efficiency at EC20 acetylcholine; type: cell-based; details: CHO-DUKX-M2-GIRK cells; for EC50: voltage-sensitive dye, acetylcholine at EC20, in some cases mean of two or more determinations; for Emax: boosting of the acetylcholine effect at EC20 acetylcholine concentration
# Outline: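 Positive allosteric modulation measured as boosting of an EC20 acetylcholine response: hyperpolarization via GIRK1/4 in CHO-DUKX-M2-GIRK cells, monitored by membrane-potential dye fluorescence over 60 s after agonist, compound preadded. Hill-function fit gives EC50 and efficiency.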
Cooperativity (alpha factor) (human M2 receptor [1]),EC50 (human M2 receptor [2]),Emax (human M2 receptor [2]),SMILES
39,8.35 nM,88%,"O=C(N[C@@H](C1CC1)C(F)(F)F)c1cn(-c2c(F)cc(F)cc2F)c2nc(N3CC(CO)(CO)C3)c(F)cc2c1=O [Example 84, 7-[3,3-Bis(hydroxymethyl)azetidin-1-yl]-N-[(1S)-1-cyclopropyl-2,2,2-trifluoroethyl]-6-fluoro-4-oxo-1-(2,4,6-trifluorophenyl)-1,4-dihydro-1,8-naphthyridine-3-carboxamide]"
44,4.75 nM,100%,"CCC(C)(C)NC(=O)c1cn(-c2c(F)cc(F)cc2F)c2nc(N3C[C@@H](O)[C@H](O)C3)c(F)cc2c1=O [Example 89, 7-[(3R,4R)-3,4-dihydroxypyrrolidin-1-yl]-6-fluoro-N-(2-methylbutan-2-yl)-4-oxo-1-(2,4,6-tri-fluorophenyl)-1,4-dihydro-1,8-naphthyridine-3-carboxamide]"
30,18.5 nM,95%,"CC(C)(C)NC(=O)c1cn(-c2c(F)cc(F)cc2F)c2nc(N3C[C@@H](O)[C@H](O)C3)c(F)cc2c1=O [Example 90, N-tert-Butyl-7-[(3R,4R)-3,4-dihydroxypyrrolidin-1-yl]-6-fluoro-4-oxo-1-(2,4,6-trifluoro-phenyl)-1,4-dihydro-1,8-naphthyridine-3-carboxamide]"
50,14.3 nM,98%,"CC[C@H](NC(=O)c1cn(-c2c(F)cc(F)cc2F)c2nc(N3C[C@@H](O)[C@@H](O)C3)c(F)cc2c1=O)C(F)(F)F [Example 98, 7-[(3R,4S)-3,4-Dihydroxypyrrolidin-1-yl]-6-fluoro-4-oxo-N-[(2S)-1,1,1-trifluorobutan-2-yl]-1-(2,4,6-trifluorophenyl)-1,4-dihydro-1,8-naphthyridine-3-carboxamide]"
47,5.4 nM,96%,"O=C(N[C@@H](C1CC1)C(F)(F)F)c1cn(-c2c(F)cc(F)cc2F)c2nc(N3CC[C@H](O)C3)c(F)cc2c1=O [Example 108, N-[(1S)-1-Cyclopropyl-2,2,2-trifluoroethyl]-6-fluoro-7-[(3S)-3-hydroxypyrrolidin-1-yl]-4-oxo-1-(2,4,6-trifluorophenyl)-1,4-dihydro-1,8-naphthyridine-3-carboxamide]"
53,6.65 nM,98%,"CC[C@H](NC(=O)c1cn(-c2c(F)cc(F)cc2F)c2nc(N3CC[C@H](O)C3)c(F)cc2c1=O)C(F)(F)F [Example 115, 6-Fluoro-7-[(3S)-3-hydroxypyrrolidin-1-yl]-4-oxo-N-[(2S)-1,1,1-trifluorobutan-2-yl]-1-(2,4,6-trifluorophenyl)-1,4-dihydro-1,8-naphthyridine-3-carboxamide]"
67,4.5 nM,98%,"O=C(NC(C(F)(F)F)C(F)(F)F)c1cn(-c2c(F)cc(F)cc2F)c2nc(N3C[C@@H](O)[C@H](O)C3)c(F)cc2c1=O [Example 144, 7-[(3R,4R)-3,4-Dihydroxypyrrolidin-1-yl]-6-fluoro-N-(1,1,1,3,3,3-hexafluoropropan-2-yl)-4-oxo-1-(2,4,6-trifluorophenyl)-1,4-dihydro-1,8-naphthyridine-3-carboxamide]"
86,11.2 nM,100%,"O=C(NC(C(F)(F)F)C(F)(F)F)c1cn(-c2ncc(F)cc2F)c2nc(N3C[C@@H](O)[C@H](O)C3)c(F)cc2c1=O [Example 145, 1-(3,5-Difluoropyridin-2-yl)-7-[(3R,4R)-3,4-dihydroxypyrrolidin-1-yl]-6-fluoro-N-(1,1,1,3,3,3-hexafluoropropan-2-yl)-4-oxo-1,4-dihydro-1,8-naphthyridine-3-carboxamide]"
45,7.1 nM,100%,"CC(C)(NC(=O)c1cn(-c2c(F)cc(F)cc2F)c2nc(N3C[C@@H](O)[C@H](O)C3)c(Br)cc2c1=O)C(F)(F)F [Example 159, 6-Bromo-7-[(3R,4R)-3,4-dihydroxypyrrolidin-1-yl]-4-oxo-N-(1,1,1-trifluoro-2-methylpropan-2-yl)-1-(2,4,6-trifluorophenyl)-1,4-dihydro-1,8-naphthyridine-3-carboxamide]"
38,7.3 nM,100%,"O=C(N[C@@H](C1CC1)C(F)(F)F)c1cn(-c2c(F)cc(F)cc2F)c2nc(N3C[C@@H](O)[C@H](O)C3)c(Br)cc2c1=O [Example 160, 6-Bromo-N-[(1S)-1-cyclopropyl-2,2,2-trifluoroethyl]-7-[(3R,4R)-3,4-dihydroxypyrrolidin-1-yl]-4-oxo-1-(2,4,6-trifluorophenyl)-1,4-dihydro-1,8-naphthyridine-3-carboxamide]"
45,2 nM,100%,"CC(C)(NC(=O)c1cn(-c2c(F)cc(F)cc2F)c2nc(N3C[C@@H](O)[C@H](O)C3)c(F)cc2c1=O)C(F)(F)C(F)(F)F [Example 164, 7-[(3R,4R)-3,4-Dihydroxypyrrolidin-1-yl]-6-fluoro-4-oxo-N-(3,3,4,4,4-pentafluoro-2-methyl-butan-2-yl)-1-(2,4,6-trifluorophenyl)-1,4-dihydro-1,8-naphthyridine-3-carboxamide]"
48,2.4 nM,100%,"CC(C)(C)C(C)(C)NC(=O)c1cn(-c2c(F)cc(F)cc2F)c2nc(N3C[C@@H](O)[C@H](O)C3)c(F)cc2c1=O [Example 165, 7-[(3R,4R)-3,4-Dihydroxypyrrolidin-1-yl]-6-fluoro-4-oxo-1-(2,4,6-trifluorophenyl)-N-(2,3,3-trimethylbutan-2-yl)-1,4-dihydro-1,8-naphthyridine-3-carboxamide]"
31,4.4 nM,100%,"CC(C)(NC(=O)c1cn(-c2c(F)cc(F)cc2F)c2nc(N3CC(CO)(CO)C3)c(F)cc2c1=O)C(F)(F)C(F)(F)F [Example 166, 7-[3,3-Bis(hydroxymethyl)azetidin-1-yl]-6-fluoro-4-oxo-N-(3,3,4,4,4-pentafluoro-2-methyl-butan-2-yl)-1-(2,4,6-trifluorophenyl)-1,4-dihydro-1,8-naphthyridine-3-carboxamide]"
29,5 nM,100%,"O=C(NC(C1CC1)(C1CC1)C(F)(F)F)c1cn(-c2c(F)cc(F)cc2F)c2nc(N3C[C@@H](O)[C@H](O)C3)c(F)cc2c1=O [Example 203, N-(1,1-dicyclopropyl-2,2,2-trifluoroethyl)-7-[(3R,4R)-3,4-dihydroxypyrrolidin-1-yl]-6-fluoro-4-oxo-1-(2,4,6-trifluorophenyl)-1,4-dihydro-1,8-naphthyridine-3-carboxamide]"
27,1.8 nM,100%,"O=C(NC(C1CC1)(C1CC1)C(F)(F)C(F)(F)F)c1cn(-c2c(F)cc(F)cc2F)c2nc(N3C[C@@H](O)[C@H](O)C3)c(F)cc2c1=O [Example 208, N-(1,1-dicyclopropyl-2,2,3,3,3-pentafluoropropyl)-7-[(3R,4R)-3,4-dihydroxypyrrolidin-1-yl]-6-fluoro-4-oxo-1-(2,4,6-trifluorophenyl)-1,4-dihydro-1,8-naphthyridine-3-carboxamide]"
26,2.1 nM,100%,"O=C(NC(C1CC1)(C1CC1)C(F)(F)F)c1cn(-c2c(F)cc(F)cc2F)c2nc(N3CC(CO)(CO)C3)c(F)cc2c1=O [Example 210, 7-[3,3-bis(hydroxymethyl)azetidin-1-yl]-N-(1,1-dicyclopropyl-2,2,2-trifluoroethyl)-6-fluoro-4-oxo-1-(2,4,6-trifluorophenyl)-1,4-dihydro-1,8-naphthyridine-3-carboxamide]"
28,2 nM,100%,"O=C(NC(C1CC1)(C1CC1)C(F)(F)C(F)(F)F)c1cn(-c2c(F)cc(F)cc2F)c2nc(N3CC(CO)(CO)C3)c(F)cc2c1=O [Example 212, 7-[3,3-bis(hydroxymethyl)azetidin-1-yl]-N-(1,1-dicyclopropyl-2,2,3,3,3-pentafluoropropyl)-6-fluoro-4-oxo-1-(2,4,6-trifluorophenyl)-1,4-dihydro-1,8-naphthyridine-3-carboxamide]"
36,9.7 nM,97%,"O=C(NC(C(F)(F)F)C(F)(F)F)c1cn(-c2c(F)cc(F)cc2F)c2nc(N3CC(CO)(CO)C3)c(F)cc2c1=O [Example 230, 7-[3,3-bis(hydroxymethyl)azetidin-1-yl]-6-fluoro-N-(1,1,1,3,3,3-hexafluoropropan-2-yl)-4-oxo-1-(2,4,6-trifluorophenyl)-1,4-dihydro-1,8-naphthyridine-3-carboxamide]"

# From patent US11472803B2, “7-substituted 1-aryl-naphthyridine-3-carboxylic acid amides and use thereof” (Bayer Aktiengesellschaft, priority 2016, dated 2022)
